Assay results: ChEMBL document CHEMBL4145521, “Regioselective synthesis of 3,4-diaryl-5-unsubstituted isoxazoles, analogues of natural cytostatic combretastatin A4” (Eur J Med Chem, 2018)

Key:
Type in all cases: functional
MDA-MB-468 = assay: Cytotoxicity against human MDA-MB-468 cells assessed as cell growth at 0.01 uM incubated for 48 hrs by sulforhodamine B assay relative to control; conditions: MDA-MB-468, 48 h, read-out: Activity
HOP-62 = assay: Cytotoxicity against human HOP62 cells incubated for 48 hrs by sulforhodamine B assay; conditions: HOP-62, 48 h
SK-OV-3 = assay: Cytotoxicity against human SKOV3 cells assessed as cell growth at 0.1 uM incubated for 48 hrs by sulforhodamine B assay relative to control; conditions: SK-OV-3, 48 h, read-out: Activity
K562 = assay: Cytotoxicity against human K562 cells incubated for 48 hrs by sulforhodamine B assay; conditions: K562, 48 h
ACHN = assay: Cytotoxicity against human ACHN cells assessed as cell growth at 100 uM incubated for 48 hrs by sulforhodamine B assay relative to control; conditions: read-out: Activity
UACC-62 = assay: Cytotoxicity against human UACC62 cells assessed as cell growth at 100 uM incubated for 48 hrs by sulforhodamine B assay relative to control; conditions: UACC-62, 48 h, read-out: Activity
SNB-75 = assay: Cytotoxicity against human SNB75 cells assessed as cell growth at 0.01 uM incubated for 48 hrs by sulforhodamine B assay relative to control; conditions: SNB-75, 48 h, read-out: Activity
IGROV-1 = assay: Cytotoxicity against human IGROV1 cells assessed as cell growth at 10 uM incubated for 48 hrs by sulforhodamine B assay relative to control; conditions: IGROV-1, 48 h, read-out: Activity
NCI-H522 = assay: Cytotoxicity against human NCI-H522 cells assessed as cell growth at 1 uM incubated for 48 hrs by sulforhodamine B assay relative to control; conditions: NCI-H522, 48 h, read-out: Activity
HT-29 = assay: Cytotoxicity against human HT-29 cells assessed as cell growth at 1 uM incubated for 48 hrs by sulforhodamine B assay relative to control; conditions: HT-29, 48 h, read-out: Activity
LOX IMVI = assay: Cytotoxicity against human LOXIMVI cells assessed as cell growth at 0.01 uM incubated for 48 hrs by sulforhodamine B assay relative to control; conditions: read-out: Activity
BT-549 = assay: Cytotoxicity against human BT549 cells assessed as cell growth at 100 uM incubated for 48 hrs by sulforhodamine B assay relative to control; conditions: BT-549, 48 h, read-out: Activity
T47D = assay: Cytotoxicity against human T47D cells incubated for 48 hrs by sulforhodamine B assay

For COc1ccc(-c2nocc2-c2cc(OC)c(OC)c(OC)c2)cc1, the growth at 0.01 µM (MDA-MB-468) was 94%, the GI50 (HOP-62; read-out: GI50) was 0.259 µM and the LC50 (HOP-62; read-out: LC50) was greater than 100 µM. For the same compound, the TGI (HOP-62; read-out: TGI) was greater than 100 µM, the GI50 (HOP-62; read-out: pGI50 (converted)) was 0.257 µM and the LC50 (HOP-62; read-out: pLC50 (converted)) was greater than 100 µM. For the same compound, the TGI (HOP-62; read-out: pTGI) was greater than 100 µM, the growth at 0.1 µM (SK-OV-3) was 60% and the GI50 (K562; read-out: GI50) was 0.0471 µM. It also gave an LC50 (50% lethal concentration) (K562; read-out: LC50) greater than 100 µM, a TGI (K562; read-out: TGI) greater than 100 µM and a GI50 (K562; read-out: pGI50 (converted)) of 0.0468 µM. The LC50 (50% lethal concentration) (K562; read-out: pLC50 (converted)) was greater than 100 µM, the TGI (K562; read-out: pTGI) was greater than 100 µM and the growth at 100 µM (ACHN) was -13%. For the same compound, the growth at 100 µM (UACC-62) was -38%, the growth at 0.01 µM (SNB-75) was 74% and the growth at 10 µM (IGROV-1) was 25%. For the same compound, the growth at 1 µM (NCI-H522) was -39%, the growth at 1 µM (HT-29) was 2% and the growth at 0.01 µM (LOX IMVI) was 94%. It also gave a growth at 100 µM (BT-549) of -24%, an LC50 (T47D; read-out: LC50) greater than 100 µM and a TGI (T47D; read-out: TGI) of 86.3 µM. The LC50 (T47D; read-out: pLC50 (converted)) was greater than 100 µM and the TGI (T47D; read-out: pTGI (converted)) was 87.1 µM.
